Data as given in patent US7838685B2 (priority 2005, dated 2010).
“And” between values parts separate entries of the source, which are not always exact repeats. Equal entries are not always repeated.

How the values were obtained:
[1] = Phase transition temperature by differential scanning calorimeter; assay type: physicochemical; conditions: for Tc, temperature of the gel to liquid-crystalline phase transition: dispersed in pure water, lipid concentration 1 wt %, DSC 2° C./min, 20 to 80° C.; for Transition temperature: comparison of cationic vesicles, hydrated at 10 mg/mL, extruded through 0.22 μm filter
Experimental: Each of the obtained cationic amino acid type lipids was dispersed in a simple medium of pure water at 60° C. and used as a measurement sample. 60 μL of a sample solution (lipid concentration: 1 wt %) was encapsulated in a silver pan (sealable type), and the phase transition temperature Tc was measured by a differential scanning calorimeter with the temperature elevation rate of 2° C./min. and the measurement temperature of 20 to 80° C.
(§1) Lys-Asp2C16 (5) was hydrated at a lipid concentration of 10 mg/mL and transmitted through a membrane filter having a final pore diameter of 0.22 μm by the extrusion method. Then, the phase transition temperature and the particle size of the assembly were measured. The particle size of the molecular assembly of Lys-Asp2C16 (5) measured by the dynamic light scattering method was 374±178 nm, and the phase transition temperature thereof was 30° C.

[2] = tested on: human fibroblasts CCD-32SK; test: Cytotoxicity test, cell survival rate by WST assay, CCD-32SK; assay type: cell-based; conditions: 24 h, 10 μg/dish
Experimental: (§2) The cationic amino acid type lipid (2) was evaluated in terms of cytotoxicity by adding different amounts thereof to cells. Specifically, 1×10^4 simian kidney-derived cells COS-7 or human fibroblasts CCD-32SK were planted to dishes and cultured for 24 hours in an incubator. To the cultured cells, a cationic liposome diluted with a medium was added so as to be 0.1, 1, 5, and 10 μg/dish. The cells were cultured for another 24 hours. Then, the cells were washed with a medium, and the cell survival rate was calculated by the WST assay. Based on the results, the cytotoxicity was evaluated (n=2). For comparison, the same test was performed using lipofectamine, which is currently in general use as a gene introduction drag. In the figure, (a) represents the results with COS-7, and (b) represents the results with CCD-32SK. Where 10 μg of lipofectamine was added to COS-7, the cell survival rate 24 hours later was 20%.

[3] = Zeta potential of the molecular assembly including a single type of cationic amino acid type lipid; assay type: physicochemical; conditions: molecular assembly 1 mg/mL, extrusion method, 30 mM phosphoric buffer solution pH7.4
Experimental: The zeta potential of a molecular assembly (1 mg/mL) including a single type of cationic amino acid type lipid (2), (3) or (4) prepared by the extrusion method was measured by a zeta potentiometer (Nano-ZS, Malvern) with 30 mM of a phosphoric buffer solution at pH7.4. The zeta potential of each molecular assembly was +37 mV with the cationic amino acid type lipid (2), +45 mV with the cationic amino acid type lipid (3), and lower at +18 mV with the cationic amino acid type lipid (4). From such zeta potentials, it has been clarified that the surface of a molecular assembly formed of a cationic amino acid type lipid is charged positive under physiological conditions.

[4] = Particle size of the molecular assembly by dynamic light scattering method; assay type: physicochemical; conditions: hydrate extruded through 0.22 μm membrane filter
Experimental: (§3) 10 mg of the cationic amino acid type lipid (2), (3) or (4) was hydrated in 2 mL of pure water and stirred at room temperature for 6 hours. Then, the resultant hydrate was transmitted with pressure through a membrane filter (final pore diameter: 0.22 μm) (extrusion method). […] After the transmission, the resultant substance was subjected to ultracentrifugation (33,000 rpm, 30 min.) and re-dispersed in pure water to obtain a molecular assembly including a respective cationic amino acid type lipid.
A hydrate dispersion solution of the cationic amino acid type lipid (2) was extruded and observed with an electron microscope. The particle size of the vesicles was approximately the same as the particle size thereof measured by a dynamic light scattering method (181±83 nm).
as §1

[5] = tested on: simian kidney-derived cells COS-7; test: Cytotoxicity test, cell survival rate by WST assay, COS-7; assay type: cell-based; conditions: COS-7, 10 μg added, 24 hours later
Experimental: as §2

[6] = Observation of the molecular assembly with transmission electron microscope; assay type: physicochemical; conditions: for Form of molecular assembly observed with electron microscope: hydrate dispersion extruded
Experimental: as §3
The thickness of the ribbon is considered to be about 5 nm, which is approximately the same as the thickness of the bilayer.

SMILES | Tc, temperature of the gel to liquid-crystalline phase transition [1] | Transition temperature [1] | ξ potential [3] | Particle size (dynamic light scattering method) [4] | Form of molecular assembly observed with electron microscope ([6]; TEM) | other results
CCCCCCCCCCCCCCCCOC(=O)CCC(N)C(=O)OCCCCCCCCCCCCCCCC (centres unmarked) [Compound 1] | 49.4 °C |  |  |  |  | 
CCCCCCCCCCCCCCCCOC(=O)CCC(NC(=O)C(N)CCCCN)C(=O)OCCCCCCCCCCCCCCCC (centres unmarked) [Compound 2] | 41.2 °C | 41.2 °C | +37 mV | 181±83 nm and 188 ± 82 nm |  | Cell survival rate [2]: about 80%; Cell survival rate [5]: not decreased at all
CCCCCCCCCCCCCCCCOC(=O)CCC(NC(=O)C(N)Cc1c[nH]cn1)C(=O)OCCCCCCCCCCCCCCCC (centres unmarked) [Compound 3] | 43.7 °C |  | +45 mV | 241±96 nm | tubular molecular assembly | Diameter of tubular molecular assembly ([6]; electron microscope): about 20 nm; Wall thickness of the tube ([6]; electron microscope): about 5 nm
CCCCCCCCCCCCCCCCOC(=O)CCC(NC(=O)C(N)CCCNC(=N)N)C(=O)OCCCCCCCCCCCCCCCC (centres unmarked) [Compound 4] | 44.8 °C |  | +18 mV | 1647±733 nm | monolayer vesicle structures | 
CCCCCCCCCCCCCCCCOC(=O)CC(NC(=O)C(N)CCCCN)C(=O)OCCCCCCCCCCCCCCCC (centres unmarked) [Compound 5, Lys-Asp2C16, reference compound] |  | 30.0 °C |  | 374 ± 178 nm | ribbon-like molecular assembly | Transition temperature ([1]; listed as Lys-Asp2C16 (5)): 30 °C; Length of the ribbon ([6]; TEM): ≥ 1 μm; Thickness of the ribbon ([6]; TEM): about 5 nm; Width of the ribbon ([6]; TEM): about 100 nm; Stability of the form of the molecular assembly ([6]; after transmission through 0.22 μm membrane filter): unstable in the form; Particle size (dynamic light scattering method) ([4]; listed as Lys-Asp2C16 (5)): 374±178 nm
